Laboratory results reported in ChEMBL document CHEMBL3885881, “DrugMatrix”.

Organism: Rattus norvegicus
Assay: DrugMatrix - Regimen: Daily Repeat
Format: toxicity, organism-based, Sprague-Dawley
Set-up: regimen Daily Repeat, gender Male, age 6-8 weeks
Conditions: in vivo, po, 20 mg/kg, route oral GAVAGE, dose level Low, vehicle .5 % CMC; for ABSOLUTE BASOPHIL / ABSOLUTE EOSINOPHIL / ABSOLUTE LYMPHOCYTE / ABSOLUTE MONOCYTE / ABSOLUTE SEGMENTED NEUTROPHIL / BASOPHIL / EOSINOPHIL / ERYTHROCYTE COUNT / HEMATOCRIT / HEMOGLOBIN / LEUKOCYTE COUNT / LYMPHOCYTE / MEAN CORPUSCULAR HEMOGLOBIN / MEAN CORPUSCULAR HEMOGLOBIN CONCENTRATION / MEAN CORPUSCULAR VOLUME / MONOCYTE / NEUTROPHIL / NUCLEATED RED BLOOD CELLS / PLATELET COUNT: tissue Blood; for ALANINE AMINOTRANSFERASE / ALBUMIN / ALKALINE PHOSPHATASE / ASPARTATE AMINOTRANSFERASE / BLOOD UREA NITROGEN / CARBON DIOXIDE / CHLORIDE / CHOLESTEROL / CREATINE PHOSPHOKINASE / CREATININE / GLUCOSE / LACTATE DEHYDROGENASE / LIPASE / PHOSPHORUS / POTASSIUM / SODIUM / TOTAL BILIRUBIN / TOTAL PROTEIN / URIC ACID: tissue Plasma

Clc1ccc2c(c1)C(N1CCNCC1)=Nc1ccccc1O2 [AMOXAPINE]
ABSOLUTE BASOPHIL (72 h, time 3 day): 0 CELLS/uL
ABSOLUTE EOSINOPHIL (72 h, time 3 day): 0 CELLS/uL
ABSOLUTE LYMPHOCYTE (72 h, time 3 day): 12123 CELLS/uL
ABSOLUTE MONOCYTE (72 h, time 3 day): 372 CELLS/uL
ABSOLUTE SEGMENTED NEUTROPHIL (72 h, time 3 day): 1505 CELLS/uL
BASOPHIL (72 h, time 3 day): 0%
EOSINOPHIL (72 h, time 3 day): 0%
ERYTHROCYTE COUNT (72 h, time 3 day): 5.61 x10E6/uL
HEMATOCRIT (72 h, time 3 day): 34.6%
HEMOGLOBIN (72 h, time 3 day): 13.67 G/DL
LEUKOCYTE COUNT (72 h, time 3 day): 14 x10E3/uL
LYMPHOCYTE (72 h, time 3 day): 86.67%
MEAN CORPUSCULAR HEMOGLOBIN (72 h, time 3 day): 24.47 pg
MEAN CORPUSCULAR HEMOGLOBIN CONCENTRATION (72 h, time 3 day): 39.53 G/DL
MEAN CORPUSCULAR VOLUME (72 h, time 3 day): 61.9 fL
MONOCYTE (72 h, time 3 day): 2.67%
NEUTROPHIL (72 h, time 3 day): 10.67%
NUCLEATED RED BLOOD CELLS (72 h, time 3 day): 0.33 /100WBC
PLATELET COUNT (72 h, time 3 day): 1267.33 x10E3/uL
ALANINE AMINOTRANSFERASE (72 h, time 3 day): 52 u/L
ALBUMIN (72 h, time 3 day): 4.13 G/DL
ALKALINE PHOSPHATASE (72 h, time 3 day): 425.33 u/L
ASPARTATE AMINOTRANSFERASE (72 h, time 3 day): 87 u/L
BLOOD UREA NITROGEN (72 h, time 3 day): 15.67 mg/dL
CARBON DIOXIDE (72 h, time 3 day): 26.67 mmol/L
CHLORIDE (72 h, time 3 day): 101.33 MEQ/L
CHOLESTEROL (72 h, time 3 day): 69 mg/dL
CREATINE PHOSPHOKINASE (72 h, time 3 day): 308 u/L
CREATININE (72 h, time 3 day): 0.17 mg/dL
GLUCOSE (72 h, time 3 day): 148.33 mg/dL
LACTATE DEHYDROGENASE (72 h, time 3 day): 190.67 u/L
LIPASE (72 h, time 3 day): 9 u/L
PHOSPHORUS (72 h, time 3 day): 12.47 mg/dL
POTASSIUM (72 h, time 3 day): 6.99 MEQ/L
SODIUM (72 h, time 3 day): 143.93 MEQ/L
TOTAL BILIRUBIN (72 h, time 3 day): 0.17 mg/dL
TOTAL PROTEIN (72 h, time 3 day): 5.8 G/DL
URIC ACID (72 h, time 3 day): 1.77 mg/dL
ABSOLUTE BASOPHIL (120 h, time 5 day): 0 CELLS/uL
ABSOLUTE EOSINOPHIL (120 h, time 5 day): 0 CELLS/uL
ABSOLUTE LYMPHOCYTE (120 h, time 5 day): 16690.33 CELLS/uL
ABSOLUTE MONOCYTE (120 h, time 5 day): 278.67 CELLS/uL
ABSOLUTE SEGMENTED NEUTROPHIL (120 h, time 5 day): 997.67 CELLS/uL
BASOPHIL (120 h, time 5 day): 0%
EOSINOPHIL (120 h, time 5 day): 0%
ERYTHROCYTE COUNT (120 h, time 5 day): 5.66 x10E6/uL
HEMATOCRIT (120 h, time 5 day): 34.53%
HEMOGLOBIN (120 h, time 5 day): 14.03 G/DL
LEUKOCYTE COUNT (120 h, time 5 day): 17.97 x10E3/uL
LYMPHOCYTE (120 h, time 5 day): 93%
MEAN CORPUSCULAR HEMOGLOBIN (120 h, time 5 day): 24.87 pg
MEAN CORPUSCULAR HEMOGLOBIN CONCENTRATION (120 h, time 5 day): 40.63 G/DL
MEAN CORPUSCULAR VOLUME (120 h, time 5 day): 61.17 fL
MONOCYTE (120 h, time 5 day): 1.33%
NEUTROPHIL (120 h, time 5 day): 5.67%
NUCLEATED RED BLOOD CELLS (120 h, time 5 day): 0.67 /100WBC
PLATELET COUNT (120 h, time 5 day): 1272 x10E3/uL
ALANINE AMINOTRANSFERASE (120 h, time 5 day): 53.33 u/L
ALBUMIN (120 h, time 5 day): 4.1 G/DL
ALKALINE PHOSPHATASE (120 h, time 5 day): 315 u/L
ASPARTATE AMINOTRANSFERASE (120 h, time 5 day): 72.33 u/L
BLOOD UREA NITROGEN (120 h, time 5 day): 18.33 mg/dL
CARBON DIOXIDE (120 h, time 5 day): 27.33 mmol/L
CHLORIDE (120 h, time 5 day): 100.33 MEQ/L
CHOLESTEROL (120 h, time 5 day): 84 mg/dL
CREATINE PHOSPHOKINASE (120 h, time 5 day): 186.33 u/L
CREATININE (120 h, time 5 day): 0.19 mg/dL
GLUCOSE (120 h, time 5 day): 146 mg/dL
LACTATE DEHYDROGENASE (120 h, time 5 day): 126.33 u/L
LIPASE (120 h, time 5 day): 10 u/L
PHOSPHORUS (120 h, time 5 day): 12.8 mg/dL
POTASSIUM (120 h, time 5 day): 6.96 MEQ/L
SODIUM (120 h, time 5 day): 145.2 MEQ/L
TOTAL BILIRUBIN (120 h, time 5 day): 0.2 mg/dL
TOTAL PROTEIN (120 h, time 5 day): 5.8 G/DL
URIC ACID (120 h, time 5 day): 1.43 mg/dL
